Results as given in patent US20150025045A1, “CBP AND p300-MEDIATED TRANSCRIPTION MODULATORS AND RELATED METHODS” (THE OHIO STATE UNIVERSITY, priority 2011, published 2015).
Entries after “also recorded” stand apart in the source; their conditions may differ.

How the values were obtained:
Jun = assay: Transcriptional inhibition assay, Ga14 DBD-Jun TAD luciferase reporter in HeLa cells; format: cell-based; settings: in words
Procedure: Cells were transfected with Firefly (500 ng/mL) and Renilla luciferase (10 ng/mL) plasmids in addition to plasmids encoding the DBD of Ga14 fused to the minimal activation domains of either MLL (250 ng/mL), Jun (100 ng/mL), or ESX (500 ng/mL, 0.1 mL of total transfection solution). Four hours post-transfection cells were treated with increasing concentration of 1b (0→50 μM) as a solution in DMSO such that the final DMSO concentration was 1% (v/v). Percent inhibition is the ratio of fold activation of Jun at each concentration of compound and the fold activation of Jun in a DMSO-treated control. Each bar represents at least three independent experiments with the indicated error (SDOM). For each concentration level of 1b shown in FIG. 5a, the first data column from the left is Jun, the middle column is MLL, and the third column is ESX. (b) MCF-7 cells were treated with 40 μM 1b (as a solution in DMSO such that the final concentration of DMSO was 1% v/v) for 24 h, at which time the cells were lysed and the lysates separated by SDS-PAGE. Western blots were performed using commercial antibodies against GAPDH, Jun, and cyclin D1.
(b) Analogs of 1b tested for MLL and Jun inhibition. (c) Inhibition of Jun with isoxazolidine analogs Inhibition assays were carried out as described in FIG. 5a (SEQ ID NOs:1-4). For each concentration level shown in FIG. 6c, the compound data is shown (from the left) in the following order: 3, 4, 5, 6, 7, 8 and 9.
HeLa cells (10,000 per well) were transfected with a Firefly luciferase reporter (500 ng/mL), and Renilla (10 ng/mL) control plasmid in addition to a plasmid encoding for either the MLL (250 ng/mL) or Jun (100 ng/mL) activation domain fused to the DNA-binding domain of Ga14 in 0.1 mL Optimem. The Optimem was removed and 0.1 mL of DMEM supplemented with 10% FBS and compound was added four hours post-transfection and the luminescence was assessed after 24 h as described above.

KIX domain of CBP = target: T1, KIX domain of CBP (Mus musculus, UniProt P45481); assay: 1H-15N-HSQC binding analysis; settings: 200 μM 15N-His6KIX, 5 eq. compound
T1 construct: the KIX domain, an 87-residue module whose solution structure has been elucidated; made in house
T1 sequence (P45481 586-665 limits assumed): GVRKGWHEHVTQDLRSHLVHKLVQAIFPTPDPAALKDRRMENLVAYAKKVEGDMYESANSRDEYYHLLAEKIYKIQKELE
Procedure: The amide chemical shifts that change upon addition of 4 were quantitated were quantified using the equation: Δδ=[Δδ(^1H)^2+0.1Δδ(^15N)^2]^1/2, FIG. 7B bottom.
Uniformly labeled His6KIX protein was expressed and purified as previously described and stored as a lyophilized powder (see, e.g., Buhrlage, 2009). A 200 μM solution of His6KIX was prepared by dissolving the lyophilized protein, in a 9:1 H2O:D2O 10 mM PBS buffer containing 150 mM NaCl at pH 7.2. ^1H-^15N HSQC experiments were recorded at 27° C. on an Avance Bruker 600 MHz NMR spectrometer equipped with a 5 mm cryogenic probe. An HSQC was collected in the absence of isoxazolidine 4 and compared with data recorded in the presence of 5 eq. (1 mM) of 4. Data was processed using NMRPIPE. Chemical shift assignments were based on previously reported data′ and chemical shift analyses with Sparky software were quantified (Δδ=[Δδ(^1H)^2+0.1Δδ(^15N)^2]^1/2).

MCF-7 cells = assay: Cell viability assay (WST-1); format: cell-based; settings: at concentrations ≧50 μM (so in the source)
Procedure: Viability data was acquired after 24 h using a cell-permeable metabolic dye, WST-1 (Roche). Viability data was normalized based on cell viability in the presence of 1% DMSO.
MCF-7 cells (American Tissue Culture Collection) were seeded at 5000 cells per well in a 96 well plate in RPMI media supplemented with 10% fetal bovine serum and allowed to adhere (37° C. and 5% CO2) overnight. Cells were incubated with 1b in DMSO or DMSO alone to a final DMSO concentration of 1% (v/v) for 24 hrs. WST-1 (Roche) was subsequently added to wells and the 96 well plate was incubated for 1 h at 37° C. Absorbance at 440 nm was read on a Tecan GENios Pro plate reader following 1 minute of orbital shaking. Data was corrected for wells containing media+WST-1 without cells. Each value is the average of at least three wells with the indicated error (SDOM).

| KIX binding by 1H-15N-HSQC (KIX domain of CBP) | Structure (SMILES) | effect on Jun-driven transcription (Jun) | toxicity (MCF-7 cells) |
| --- | --- | --- | --- |
| did not negatively impact KLX binding | CC(C)C[C@]1(CCO)C[C@H](CN=[N+]=[N-])ON1Cc1ccc(O)cc1 (racemic) [isoxazolidine 4] | little activity | no measurable toxicity |
|  | CC(C)C[C@]1(CCO)C[C@H](CN=[N+]=[N-])ON1Cc1ccc(F)cc1 (racemic) [isoxazolidine 6] | dose-dependent manner; also recorded: enhanced potency |  |
|  | CC(C)CCN1O[C@@H](CN=[N+]=[N-])C[C@@]1(CCO)CC(C)C (racemic) [isoxazolidine 7] | dose-dependent manner; also recorded: enhanced potency |  |
|  | CC(C)CN1O[C@@H](CN=[N+]=[N-])C[C@@]1(CCO)CC(C)C (racemic) [isoxazolidine 8] | little activity |  |
|  | CCCN1O[C@@H](CN=[N+]=[N-])C[C@@]1(CCO)CC(C)C (racemic) [isoxazolidine 9] | little activity |  |
